Assay results as given in patent publication US20240208939A1, “TREATMENT OF AUTOIMMUNE AND INFLAMMATORY DISORDERS WITH INHIBITORS OF BET FAMILY BDII BROMODOMAIN” (POSEIDON INNOVATION 1, INC., priority 2022, published 2024).

What was measured:
BRD4 BD2 = target: T1, BRD4 BD2 (Homo sapiens, UniProt O60885); assay: Target Engagement Intracellular BET BRD Assay (NanoBRET); type: cell-based; details: read-out: BRD4 BD2 TE IC50
T1 construct: BD2 TE; expressed in transfected cells
Experimental: 3× Complete Substrate plus Inhibitor Solution in Assay Medium (Opti-MEM® I Reduced Serum Medium, no phenol red, and no serum) was prepared just before measuring BRET. This solution consisted of a 1:166 dilution of NanoBRET™ Nano-Glo® Substrate plus a 1:500 dilution of Extracellular NanoLuc® Inhibitor in Assay Medium. For a 96-well plate, 30 μl of NanoBRET™ Nano-Glo® Substrate, 10 μl of Extracellular NanoLuc® Inhibitor and 4,960 μl of Assay Medium were mixed to produce 5 ml of 3× Complete Substrate plus Inhibitor Solution, followed with gently mixing by inversion 5-10 times in a conical tube. (The final concentration of Extracellular NanoLuc® Inhibitor in the 3× solution was 60 μM, for a working concentration of 20 μM. Use 3× Complete Substrate plus Inhibitor Solution within 2 hours. Discard any remaining solution).
50 μl of 3× Complete Substrate plus Inhibitor Solution were added to each well of the 96-well plate, followed by incubation for 2-3 minutes at room temperature. Donor emission wavelength (e.g., 450 nm) and acceptor emission wavelength (e.g., 610 nm) were measured by using the GloMax® Discover System or other NanoBRET™ Assay-compatible luminometer (it is recommended measuring BRET within 10 minutes after adding NanoBRET™ Nano-Glo™ Substrate plus Extracellular NanoLuc® Inhibitor Solution. However, BRET can be measured for up to 2 hours, but there will be some loss of luminescence signal).
To generate raw BRET ratio values, the acceptor emission value (e.g., 610 nm) was divided by the donor emission value (e.g., 450 nm) for each sample [to correct for background, the BRET ratio was substracted in the absence of tracer (average of no-tracer control samples) from the BRET ratio of each sample]. Raw BRET units were converted to milliBRET units (mBU) by multiplying each raw BRET value by 1,000. NanoBRET™ ratio equation, including optional background correction is shown below:
BRET Ratio=[(Acceptorsample÷Donorsample)−(Acceptorno-tracer control÷Donorno-tracer control)]×1,000.

MCP-1 = assay: PBMC MCP-1 HTRF Assay; type: cell-based; details: LPS 200 ng/mL, 24 hours
Experimental: The cryopreserved PBMC cells were thawed in a 37° C. water bath immediately after taking out from liquid nitrogen storage. A sterile pipette was used to transfer the content to sterile […] centrifuge tube containing […] of complete growth medium (Gibico 1640) and centrifuge at 300×g for 10 min. Supernatant was discarded, and cell pellet was resuspended in 10 mL of complete growth media in a sterile 15 mL tube. The cells were rested for 1 h at 37° C. (1×10^6 cells/mL). The cells were spinned down at 300×g for 10 minutes after 1 h. Supernatant was discard, and cell pellet was resuspended in complete growth medium, the cells number and viability were measured by AO/PI staining. In a 384-well white plate, PBMCs at 25 k cells/well (15 μl per well) were seeded with Gibico 1640 medium. The compound stock was serial diluted into […] by 3-fold dilution. 20 nL DMSO, 20 nL test compounds DMSO stock (serial diluted) were transferred in assay plate by using ECHO550, incubate for 30 min at 37° C., 5% CO2. LPS was diluted by Gibico 1640 medium.add 5 μl per well. The final concentration (200 ng/mL) was incubated for 24 hours at 37° C. with 5% CO2.
For MCP-1 HTRF, 2.5 μl/well MCP-1 donor antibody and 2.5 μl/well MCP-1 acceptor antibody were added into 384 well plate, following by centrifuging at 190×g for 1 min and incubating at room temperature for 2 h. The plate was read on the Envision.

Row | Compound | IC50 (BRD4 BD2) [nM] | IC50 (MCP-1) [nM]
1 | Cc1cc(-c2ccc(-n3ccn(C)c3=O)c(Cl)c2)c(O)c(-c2cccc(N3CCN(C(C)(C)C)CC3)c2)n1 [Example I-2, 1-(4-(2-(3-(4-(tert-butyl)piperazin-1-yl)phenyl)-3-hydroxy-6-methylpyridin-4-yl)-2-chlorophenyl)-3-methyl-1,3-dihydro-2H-imidazol-2-one] | 0.152 | 1.22
2 | COc1ncc(-c2nc(C)cc(-c3ccc(-n4ccn(C)c4=O)c(Cl)c3)c2O)cc1N1CCN(C(C)(C)C)CC1 [Example I-3, 1-(4-(5′-(4-(tert-butyl)piperazin-1-yl)-3-hydroxy-6′-methoxy-6-methyl-[2,3′-bipyridin]-4-yl)-2-chlorophenyl)-3-methyl-1,3-dihydro-2H-imidazol-2-one] | 4.5 | 4.4
3 | [2H]C([2H])([2H])n1ccn(-c2ccc(-c3cc(C)nc(-c4cccc(N5CCN(C(C)(C)C)CC5)c4)c3O)cc2Cl)c1=O [Example I-4, 1-(4-(2-(3-(4-(tert-butyl)piperazin-1-yl)phenyl)-3-hydroxy-6-methylpyridin-4-yl)-2-chlorophenyl)-3-(methyl-d3)-1,3-dihydro-2H-imidazol-2-one] | 10.2 | 1.72
4 | Cc1cc(-c2ccc(-n3ccn(C)c3=O)c(Cl)c2)c(N)c(-c2cccc(N3CCN(C(C)(C)C)CC3)c2)n1 [Example I-5, 1-(4-(3-amino-2-(3-(4-(tert-butyl)piperazin-1-yl)phenyl)-6-methylpyridin-4-yl)-2-chlorophenyl)-3-methyl-1,3-dihydro-2H-imidazol-2-one] | 0.473 | 0.583
5 | Cc1cc(-c2ccc(-n3ccn(C)c3=O)c(Cl)c2)c(O)c(-c2cc(Cl)cc(N3CCN(C(C)(C)C)CC3)c2)n1 [Example I-6, 1-(4-(2-(3-(4-(tert-butyl)piperazin-1-yl)-5-chlorophenyl)-3-hydroxy-6-methylpyridin-4-yl)-2-chlorophenyl)-3-methyl-1,3-dihydro-2H-imidazol-2-one] | 9.11 | 2.25
6 | Cc1cc(-c2ccc(-n3ccn(C)c3=O)c(Cl)c2)c(O)c(-c2ccc(F)c(N3CCN(C(C)(C)C)CC3)c2)n1 [Example I-7, 1-(4-(2-(3-(4-(tert-butyl)piperazin-1-yl)-4-fluorophenyl)-3-hydroxy-6-methylpyridin-4-yl)-2-chlorophenyl)-3-methyl-1,3-dihydro-2H-imidazol-2-one] | 11 | 1.79
7 | Cc1cc(-c2ccc(-n3ccn(C)c3=O)c(F)c2)c(O)c(-c2cccc(N3CCN(C(C)(C)C)CC3)c2)n1 [Example I-8, 1-(4-(2-(3-(4-(tert-butyl)piperazin-1-yl)phenyl)-3-hydroxy-6-methylpyridin-4-yl)-2-fluorophenyl)-3-methyl-1,3-dihydro-2H-imidazol-2-one] | 13 | 5.39
8 | Cc1cc(-c2ccc(-n3ccn(C)c3=O)c(Cl)c2)c(O)c(-c2cc(N3CCN(C(C)(C)C)CC3)n(C)c(=O)c2)n1 [Example I-9, 6′-(4-(tert-butyl)piperazin-1-yl)-4-(3-chloro-4-(3-methyl-2-oxo-2,3-dihydro-1H-imidazol-1-yl)phenyl)-3-hydroxy-1′,6-dimethyl-[2,4′-bipyridin]-2′(1′H)-one] | 87.2 | 66.3
9 | Cc1cc(-c2ccc(-n3ccn(C)c3=O)c(C)c2)c(O)c(-c2cccc(N3CCN(C(C)(C)C)CC3)c2)n1 [Example I-10, 1-(4-(2-(3-(4-(tert-butyl)piperazin-1-yl)phenyl)-3-hydroxy-6-methylpyridin-4-yl)-2-methylphenyl)-3-methyl-1,3-dihydro-2H-imidazol-2-one] | 7.59 | 1.46
10 | Cc1cc(-c2ccc(-n3ccn(C)c3=O)c(Cl)c2)c(O)c(-c2ccc(Cl)c(N3CCN(C(C)(C)C)CC3)c2)n1 [Example I-11, 1-(4-(2-(3-(4-(tert-butyl)piperazin-1-yl)-4-chlorophenyl)-3-hydroxy-6-methylpyridin-4-yl)-2-chlorophenyl)-3-methyl-1,3-dihydro-2H-imidazol-2-one] | 4.22 | 6.34
11 | Cc1cc(-c2ccc(-n3ccn(C)c3=O)c(Cl)c2)c(O)c(-c2cc(F)cc(N3CCN(C(C)(C)C)CC3)c2)n1 [Example I-12, 1-(4-(2-(3-(4-(tert-butyl)piperazin-1-yl)-5-fluorophenyl)-3-hydroxy-6-methylpyridin-4-yl)-2-chlorophenyl)-3-methyl-1,3-dihydro-2H-imidazol-2-one] | 4.31 | 4.72
12 | Cn1ccn(-c2ccc(-c3cc(F)nc(-c4cccc(N5CCN(C(C)(C)C)CC5)c4)c3O)cc2Cl)c1=O [Example I-13, 1-(4-(2-(3-(4-(tert-butyl)piperazin-1-yl)phenyl)-6-fluoro-3-hydroxypyridin-4-yl)-2-chlorophenyl)-3-methyl-1,3-dihydro-2H-imidazol-2-one] | 83.6 | 16.7
13 | Cn1ccn(-c2ccc(-c3ccnc(-c4cccc(N5CCN(C(C)(C)C)CC5)c4)c3O)cc2Cl)c1=O [Example I-14, 1-(4-(2-(3-(4-(tert-butyl)piperazin-1-yl)phenyl)-3-hydroxypyridin-4-yl)-2-chlorophenyl)-3-methyl-1,3-dihydro-2H-imidazol-2-one] | 68.5 | 21.1
14 | COc1ncc(-c2cc(F)cc(-c3ccc(-n4ccn(C)c4=O)c(Cl)c3)c2O)cc1N1CCN(C(C)(C)C)CC1 [Example I-15, 1-(3′-(5-(4-(tert-butyl)piperazin-1-yl)-6-methoxypyridin-3-yl)-3-chloro-5′-fluoro-2′-hydroxy-[1,1′-biphenyl]-4-yl)-3-methyl-1,3-dihydro-2H-imidazol-2-one] | 0.152 | 1.09
